Laboratory results as given in patent US6509375B1, “Method for increasing productivity in breeder hens” (Cyncron Corporation, priority 1999, dated 2003).

Key:
Assay type in all cases: in vivo
[1] = test system: Hubbard broiler/breeder hens; experiment: Egg and chick production by broiler/breeder hens fed L-DOPA-supplemented diet (Example 1); details: for Fertility (%): eggs laid that are fertile; for Egg production (%): eggs/day/100 hens, 50 mg/kg body weight in feed; for Hatch/Fertile (%): fertile eggs that hatch / fertile eggs laid; for Chick Production (%): product of egg production, fertility and hatch/fertile percentages
Protocol: 20 Hubbard broiler/breeder hens and 4 roosters at 57 weeks of age were separated into two groups of 10 hens and two roosters. One group was fed a control (untreated) diet and the second group was fed the same diet supplemented with 50 mg/kg body weight of L-DOPA for 10 weeks. This was followed by a 3-4 week rest period and then treatment was initiated for another 3 weeks (retreatment).
(§1) Beginning with week 6 of treatment, eggs from treated hens were incubated and hatched. The progeny were then followed for seven to eight weeks to assess weight gain and feeding efficiency. Egg production percentage is in terms of eggs/day/100 hens. The fertility percentage is the number of eggs laid that are fertile. The hatch/fertile ratio is the number of fertile eggs that hatch divided by the number of fertile eggs laid. The chick production percentage is the product of the egg production, fertility, and hatch/fertile percentages.

[2] = test system: progeny chicks of broiler/breeder hens; experiment: Feeding efficiency of progeny chicks hatched from eggs of L-DOPA treated breeder hens
Protocol: As used herein, “feeding efficiency” is defined as the ratio of the weight of feed necessary to achieve one weight unit in broiler/breeder hens.
as §1
The progeny chicks hatched from eggs laid by the control and L-DOPA treated breeder hens were evaluated for feeding efficiency, as described above.
Progeny Group 1: 8 week feed conversions; Week […] of treatment in broiler breeders
Progeny Group 2: 8 week feed conversions; Week 7 of treatment in broiler breeders
Progeny Group 3: 8 week feed conversions; Week 8 of treatment in broiler breeders
Progeny Group 4: 7 week feed conversions; Week 9 of treatment in broiler breeders
Progeny Group 5: 6 week feed conversions; Week 10 of treatment in broiler breeders

[3] = test system: broiler/breeder hens; experiment: Egg laying by broiler breeder hens following handling and transfer stress (Example 2); details: for number of eggs laid: ten hens/group, 50 mg/day/kg body weight in food
Protocol: 58 week old broiler/breeder hens were obtained from a commercial private breeder when they were laying at a rate of approximately 54% (54 eggs/day/100 hens; 38 eggs/week/10 hens). […] L-DOPA was added to the feed of the treatment group of breeder hens at a dosage of 50 mg/day/kg body weight; none was added to the feed of the control group. Egg laying was monitored daily for 9 weeks in the treated and control group.

For `N[C@@H](Cc1ccc(O)c(O)c1)C(=O)O` [L-DOPA, L-Dihydroxyphenylalanine], which “average percentage egg production versus control hens” value ([1]; FIG. 1, over an eight week period) is on record?
Its value is “greater”.

What about the “cumulative egg production versus control hens” value ([1]; FIG. 2, nine week period, L-DOPA-supplemented feed) of the same molecule?
Its value is “significantly higher”.

And the “percentage egg production versus control hens during re-treatment” value ([1]; FIG. 3, three weeks of re-treatment following three weeks without L-DOPA)?
The value was “increase”.

And the “average weekly egg production versus control hens” value ([1]; FIGS. 1 and 2, L-DOPA-supplemented feed 50 mg/kg body weight)?
The value was “significantly higher”.

And the “higher rates of hatching of fertile eggs over eggs from control hens” value ([1]; eggs set for incubation during weeks 7, 8 and 10 of treatment)?
The value was 15%.

What about the “Fertility (%)” value ([1]; mean of weeks 7, 8, 10) of the same molecule?
Its value is 92%.

And the “Egg production (%)” value ([1]; mean of weeks 7, 8, 10)?
The value was 64%.

And the “Hatch/Fertile (%)” value ([1]; mean of weeks 7, 8, 10)?
Its value is 84%.

What about the “Chick Production (%)” value ([1]; mean of weeks 7, 8, 10) of the same molecule?
The value was 51%.

And the “Fertility (%)” value ([1]; week 7 of treatment)?
Its value is 84%.

What about the “Egg production (%)” value ([1]; week 7 of treatment) of the same molecule?
The value was 71%.

What about the “Hatch/Fertile (%)” value ([1]; week 7 of treatment) of the same molecule?
The value was 75%.

What about the “Chick Production (%)” value ([1]; week 7 of treatment) of the same molecule?
Its value is 45%.

And the “Fertility (%)” value ([1]; week 8 of treatment)?
The value was 100%.

And the “Egg production (%)” value ([1]; week 8 of treatment)?
Its value is 58%.

And the “Hatch/Fertile (%)” value ([1]; week 8 of treatment)?
Its value is 90%.

What about the “Chick Production (%)” value ([1]; week 8 of treatment) of the same molecule?
Its value is 52%.

And the “Fertility (%)” value ([1]; week 10 of treatment)?
Its value is 92%.

And the “Egg production (%)” value ([1]; week 10 of treatment)?
The value was 62%.

And the “Hatch/Fertile (%)” value ([1]; week 10 of treatment)?
Its value is 86%.

And the “Chick Production (%)” value ([1]; week 10 of treatment)?
Its value is 55%.

What about the “overall gain in chick production over the control groups” value ([1]; weeks 7, 8 and 10 of treatment) of the same molecule?
The value was 76%.

What about the “Final feeding efficiency of progeny” value ([2]; Average of progeny groups 1-5) of the same molecule?
The value was 2.05 pounds of feed consumed per pound of body weight gained.

What about the “Final feeding efficiency of progeny” value ([2]; Progeny Group 1: 8 week feed conversions, Week 8 of treatment in broiler breeders) of the same molecule?
The value was 1.99 pounds of feed consumed per pound of body weight gained.

What about the “Final feeding efficiency of progeny” value ([2]; Progeny Group 2: 8 week feed conversions, Week 7 of treatment in broiler breeders) of the same molecule?
The value was 2.07 pounds of feed consumed per pound of body weight gained.

And the “Final feeding efficiency of progeny” value ([2]; Progeny Group 3: 8 week feed conversions, Week 8 of treatment in broiler breeders)?
Its value is 1.98 pounds of feed consumed per pound of body weight gained.

What about the “Final feeding efficiency of progeny” value ([2]; Progeny Group 4: 7 week feed conversions, Week 9 of treatment in broiler breeders) of the same molecule?
Its value is 2.07 pounds of feed consumed per pound of body weight gained.

And the “Final feeding efficiency of progeny” value ([2]; Progeny Group 5: 6 week feed conversions, Week 10 of treatment in broiler breeders)?
Its value is 2.12 pounds of feed consumed per pound of body weight gained.

What about the “average increase in feeding efficiency of progeny relative to control birds” value ([2]; progeny hatched from eggs during weeks 6-10 of treatment) of the same molecule?
The value was 6%.

What about the “number of eggs laid” value ([3]; Total of weeks 1-9 after handling and transfer stress) of the same molecule?
The value was 327.

What about the “recovery time to achieve the same egg laying productivity rate as before the stress” value ([3]; control hens: two months) of the same molecule?
The value was “one month”.

And the “total number of eggs laid greater than that of untreated controls” value ([3]; nine weeks following the moving stress)?
Its value is 31%.

And the “number of eggs laid” value ([3]; week 1 after handling and transfer stress)?
Its value is 10.

What about the “number of eggs laid” value ([3]; week 2 after handling and transfer stress) of the same molecule?
Its value is 29.

And the “number of eggs laid” value ([3]; week 3 after handling and transfer stress)?
The value was 34.

And the “number of eggs laid” value ([3]; week 4 after handling and transfer stress)?
Its value is 41.

And the “number of eggs laid” value ([3]; week 5 after handling and transfer stress)?
The value was 39.

What about the “number of eggs laid” value ([3]; week 6 after handling and transfer stress) of the same molecule?
Its value is 50.

And the “number of eggs laid” value ([3]; week 7 after handling and transfer stress)?
Its value is 41.

And the “number of eggs laid” value ([3]; week 8 after handling and transfer stress)?
Its value is 40.

And the “number of eggs laid” value ([3]; week 9 after handling and transfer stress)?
Its value is 43.
